These results are taken from the supplement of paper PMC10307832.

Assay in all cases: relative viability (nuclei count vs DMSO), 5 days (fraction); higher = more cells survive
Compound in experiment [1]: Cc1ccc(-n2nc(C(C)(C)C)cc2NC(=O)Nc2ccc(OCCN3CCOCC3)c3ccccc23)cc1 [Doramapimod] + CC(=O)c1c(C)c2cnc(Nc3ccc(N4CCNCC4)cn3)nc2n(C2CCCC2)c1=O [Palbociclib] (partner 0.5 µM)
A digest of the protocol: (§1)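 Nuclei were stained with Hoechst during a one-step fixation (final 0.05% Triton X-100, 1% formaldehyde, 1 ug/ml Hoechst) carried out 5 days after dosing, then counted on 4× images. The cells, lung cancer lines in 1536-well plates, had been dosed by pin tool the day after seeding with one drug alone or a fixed anchor-drug dose plus five library-drug doses (not always all listed) in √10 steps. Relative viability is the nuclei count in treated wells divided by that in vehicle wells, and each value is the median of duplicate plates.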

Compound in experiment [2]: Cn1c(Nc2ccc(C(F)(F)F)cc2)nc2cc(Oc3ccnc(-c4ncc(C(F)(F)F)[nH]4)c3)ccc21 [RAF265] + CS(=O)(=O)N1CCN(Cc2cc3nc(-c4cccc5[nH]ncc45)nc(N4CCOCC4)c3s2)CC1 [Pictilisib] (partner 1 µM)
Put shortly:
as §1

Compound in experiment [3]: C1=CC=C2C(=C1)C=CC(=C2SSC3=C(C=CC4=CC=CC=C43)O)O [IPA-3] + CS(=O)(=O)N1CCN(Cc2cc3nc(-c4cccc5[nH]ncc45)nc(N4CCOCC4)c3s2)CC1 [Pictilisib] (partner 1 µM)
Put shortly:
as §1

Compound in experiment [4]: Cc1ccc(-n2nc(C(C)(C)C)cc2NC(=O)Nc2ccc(OCCN3CCOCC3)c3ccccc23)cc1 [Doramapimod] + Nc1ncn([C@H]2C[C@H](O)[C@@H](CO)O2)c(=O)n1 [Decitabine] (partner 2 µM)
Put shortly: as §1

Turning to UMC-11, the relative viability turned out to be 0.342 in experiment [1] (first compound 0.02 µM); 0.328 in experiment [1] (first compound 0.06325 µM); 0.313 in experiment [1] (first compound 0.2 µM); 0.323 in experiment [1] (first compound 0.6325 µM); 0.308 in experiment [1] (first compound 2 µM); 0.782 in experiment [2] (first compound 0.01 µM). The relative viability in experiment [2] (first compound 0.03162 µM) worked out at 0.747; in experiment [2] (first compound 0.1 µM), 0.88; in experiment [2] (first compound 0.3162 µM) it was 0.822; in experiment [2] (first compound 1 µM), 0.644; in experiment [3] (first compound 0.2 µM), 0.982; in experiment [3] (first compound 0.6325 µM) it was 0.815. Further, the relative viability was found to be 0.776 in experiment [3] (first compound 2 µM); 0.665 in experiment [3] (first compound 6.325 µM); 0.763 in experiment [3] (first compound 20 µM); 0.65 in experiment [4] (first compound 0.02 µM); 0.584 in experiment [4] (first compound 0.06325 µM); 0.646 in experiment [4] (first compound 0.2 µM). The figures for the relative viability in experiment [4] (first compound 0.6325 µM) and in experiment [4] (first compound 2 µM) were 0.723 and 0.419, respectively.
